Results on 1 substance are retold here after patent US20210230213A1, “ARAMCHOL SALTS” (GALMED RESEARCH AND DEVELOPMENT LTD., priority 2013, published 2021).

Data set [1] is described as follows: Dynamic Vapour Sorption (DVS). The data set is classed as physicochemical. On the procedure:
The samples was weighed in a glass pan, typically 20-30 mg, and equilibrated at 0% relative humidity (RH). After the material had dried, the RH was increased with 10% per step for 1 hour per increment, ending at […].
The software used for data collection was DVSWin v3.01 No Video. Data analysis was performed using DVS Standard Analysis Suite v6.3.0 (Standard).
After completion of sorption cycle, the material was dried. XRPD was performed before and after DVS.

The conditions of data set [2]: water.

As to “3β-arachidylamido-7α,12α-dihydroxy-5β-cholan-24-oic acid N-methylglucamine salt”, the “total mass uptake (DVS)” value in data set [1] (Example 4 material, sorption to 95% RH, […]) came to 16%. In addition, the “Mass uptake (DVS)” value in data set [1] (RH raised from 0% in 10% steps to 95% RH, stepwise, reversible) is recorded as 14.9% (stepwise; reversible). Besides, the “Dissolved (50 in g in 1) at 50° C.” value in data set [2] (Aramchol free acid and base 1:1, 50° C.) is “Yes”. The “salt remains in solution after cooling to 20° C.” value in data set [2] (cooled to 20° C.) is “no”.
